# Test results reported in publication PMC7294809, “Discovery of an Allosteric Binding Site in Kinetoplastid Methionyl-tRNA Synthetase” (ACS Infectious Diseases, 2020).
# Marks after values point to notes of the source that are not given here.
# Experiments:
# [1] = target: T1, TcMetRS (Trypanosoma cruzi, UniProt Q4D6H2); experiment: TcMetRS kinetic parameter determinations (Km app); format: biochemical
# Description: (§1) The activity of the TcMetRS enzyme was determined by monitoring levels of pyrophosphate released during the first step of the enzymatic reaction. The pyrophosphate formed was converted to two inorganic phosphate molecules using a pyrophosphatase enzyme, and levels of the resulting phosphate molecules were measured using the BIOMOL Green reagent (Enzo Life Sciences).
# (§2) TcMetRS assays were carried out using 384-well, clear, flat-bottomed plates (Greiner) at room temperature (∼23 °C) in 50 μL reaction volumes of assay buffer (30 mM Tris, pH 8.0, 140 mM NaCl, 30 mM KCl, 40 mM MgCl2, 0.01% (v/v) Brij-35, 1 mM DTT) plus 1 U/mL pyrophosphatase and varying concentrations of enzyme and substrates. Enzyme linearity was assessed in a 90 min end-point assay with varying TcMetRS concentrations (0–320 nM), 50 μM L-methionine, and 100 μM ATP. Reactions were stopped with the addition of 50 μL of BIOMOL Green reagent, with the signal allowed to develop for 30 min before the absorbance of each well was read at 650 nm (A650) using a PheraStar plate reader (BMG).
# (§3) Apparent Michaelis constants (Km^app) for the L-methionine and ATP substrates were determined in end-point assays using the above buffer conditions and 80 nM recombinant TcMetRS. […] To determine the ATP Km^app, various ATP concentrations were tested in the presence of a fixed, saturating concentration of L-methionine (3 mM). […]
# [2] = target: T2, LdMetRS (Leishmania donovani, UniProt A0A3Q8IBX2); details: read-out: LdMetRS Km app; cited from earlier work
# T2 sequence (A0A3Q8IBX2 entry or part of it): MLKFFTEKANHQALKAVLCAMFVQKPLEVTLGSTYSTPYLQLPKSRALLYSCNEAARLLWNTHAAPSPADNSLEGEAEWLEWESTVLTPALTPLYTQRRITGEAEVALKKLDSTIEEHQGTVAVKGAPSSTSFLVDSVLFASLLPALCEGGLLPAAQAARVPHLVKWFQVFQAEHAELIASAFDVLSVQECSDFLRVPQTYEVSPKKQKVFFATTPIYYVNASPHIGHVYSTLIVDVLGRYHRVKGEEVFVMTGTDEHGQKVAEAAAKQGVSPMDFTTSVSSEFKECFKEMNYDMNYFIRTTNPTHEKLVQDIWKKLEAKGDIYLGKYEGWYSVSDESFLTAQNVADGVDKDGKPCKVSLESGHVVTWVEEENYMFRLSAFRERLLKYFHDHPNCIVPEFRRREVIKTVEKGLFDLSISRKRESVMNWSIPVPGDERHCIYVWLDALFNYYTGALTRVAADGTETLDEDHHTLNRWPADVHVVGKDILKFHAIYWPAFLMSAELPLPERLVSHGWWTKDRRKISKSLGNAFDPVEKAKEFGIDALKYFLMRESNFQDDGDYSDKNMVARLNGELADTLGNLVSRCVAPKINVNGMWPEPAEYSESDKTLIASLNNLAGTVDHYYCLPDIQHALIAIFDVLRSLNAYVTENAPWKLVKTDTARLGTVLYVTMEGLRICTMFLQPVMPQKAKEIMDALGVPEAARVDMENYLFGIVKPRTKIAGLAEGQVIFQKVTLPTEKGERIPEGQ
# [3] = Aqueous solubility, filtration-based method; format: physicochemical; details: aqueous buffer, kinetic from dmso stock; phosphate-buffered saline pH 7.4, 24 h, 25 °C
# Description: Solubility was assessed using a filtration-based method. Test compounds were dissolved in DMSO to give 10 mM solutions. Five microliters of the 10 mM solution was added to 195 μL of phosphate-buffered saline at pH 7.4 and mixed for 24 h (rotary mixing, 900 rpm, 25 °C) excluding light. After mixing, the samples were filtered to remove any undissolved material using a Millipore Multiscreen HTS filter. The filtrate was analyzed for dissolved drug compounds using UHPLC.
# [4] = target: T2, LdMetRS; experiment: LdMetRS BIOMOL Green biochemical assay, 10-point dose response
# [5] = CHI LogD measurement; format: physicochemical; details: chromatographic hydrophobicity index
# Description: CHI LogD measurements were performed as described elsewhere.[29] cLogP measurements were calculated using StarDrop (Optibrium).
# [6] = target: T1, TcMetRS; experiment: TcMetRS BIOMOL Green biochemical assay, 10-point dose response
# [7] = target: T2, LdMetRS; experiment: LdMetRS mode of inhibition studies; format: biochemical; details: for Ki / h (inhibitor Hill slope) / β (fraction of activity remaining) / Vmax / n (substrate Hill slope) / Ks: LdMetRS; for Ki: fit to eq 7, ± SE of fit; for Vmax: global fit parameter; for n (substrate Hill slope) / Ks: global fit; for Ks: substrate dissociation constant
# Text: Subsequent full mode of inhibition studies with compounds from the MetRS02 series were more challenging due to the partial inhibition profiles of some compounds resulting in poor global fits to the standard competitive, uncompetitive, and noncompetitive inhibition models (eqs 3, 4, and 5, respectively). In addition, during the enzymatic characterization of methionine binding to LdMetRS, a Hill slope of <1 was obtained (and was hypothesized to be due to conformational selection).[6] This low Hill slope is also not factored into the standard inhibition models described (eqs 3–5). New models with additional parameters to account for the partial inhibition and low methionine Hill slope were therefore required (eqs 6 and 7). Using these modified equations, the mode of inhibition of compound 27 was carried out by testing LdMetRS enzyme activity under varying substrate concentrations at various inhibitor concentrations (Figure 5). The cooperative, noncompetitive, partial inhibition model (eq 7) was confirmed as the best fit (using F-test analyses), with a noncompetitive mode of inhibition consistent with binding in an allosteric binding pocket. The returned fit parameters are shown in Table 4 and are presented with the standard error (SE) of the fit to eq 7.
# (§4) Using GraFit v6.0 (Erithacus Software), each data set was globally fitted to standard competitive, uncompetitive, and noncompetitive inhibition models (eqs 3–5).
# (§5) Equation 5 (noncompetitive inhibition model): [drawing 5] 5 On the basis of poor data fits to the above models, partial inhibition and cooperativity parameters were introduced into the uncompetitive and noncompetitive models as previously described by Skovpen et al.[30],[31] Mode of inhibition data were globally fitted to these modified equations (eqs 6 and 7).
# (§6) Equation 7 (cooperative, noncompetitive, partial inhibition model): [drawing 7] 7 v is the velocity, Vmax is the maximum velocity, [S] is the substrate concentration, [I] is the inhibitor concentration, Ki is the inhibitor constant, Ks is the substrate dissociation constant, n is the substrate Hill slope, h is the inhibitor Hill slope, and β is the proportionality constant (fraction of activity remaining when the enzyme is fully saturated with inhibitor).
# (§7) If more than one model appeared possible, then data were fitted to both and examined for significance using the F-test function in GraFit.
# [8] = target: T1, TcMetRS; experiment: TcMetRS mode of inhibition studies; format: biochemical; details: TcMetRS, fit to eq 7, ± SE of fit
# Text: It was therefore feasible to perform TcMetRS mode inhibition studies with this compound. These studies, carried out as previously described for LdMetRS, confirm a best fit to the same partial, cooperative, noncompetitive inhibition model (eq 7; Supporting Information Figure 6 and Table 4).
# as §4, §5, §6, §7
# [9] = substrate: CSCC[C@H](N)C(=O)O; experiment: TcMetRS kinetic parameter determinations (Km app); format: biochemical, Trypanosoma cruzi; details: other: saturating 350 μM ATP; N = 3; pH 8.0; 23.0 °C
# Description: as §1, §2, §3
molecule,measurement,setting,value
Nc1ncnc2c1ncn2[C@@H]1O[C@H](COP(=O)(O)OP(=O)(O)OP(=O)(O)O)[C@@H](O)[C@H]1O [ATP],substrate inhibition constant,"[1]; ATP, 3 mM methionine",2080 µM
same,Km,"[1]; saturating 3 mM methionine, N = 3, read-out: TcMetRS apparent Michaelis constant (Km app) for ATP",63 µM
same,Km,[2],37 µM
CN(C)c1nc(Nc2ccc(F)c(F)c2)nc2c1cnn2C [Compound 19],solubility at 24 h,[3],4.8 µM
same,IC50,"[4]; LdMetRS pIC50, 50 μM methionine, 100 μM ATP, 50 nM LdMetRS, pIC50 = −log IC50 (M)",1e-06 M
same,Emax,[4]; read-out: LdMetRS Maximum % Inhibition Plateau,48.9%
same,chromatographic logD,[5],2.88
same,IC50,[6],> 100000 nM
same,Ki,[7]; varied substrate ATP,1210 ± 60 nM
same,Ki,[7]; varied substrate methionine,1220 ± 60 nM
same,h (inhibitor Hill slope),"[7]; substrate ATP, eq 7",1.75 ± 0.12
same,β (fraction of activity remaining),"[7]; substrate ATP, eq 7",0.55 ± 0.01
same,Vmax,"[7]; substrate ATP, eq 7",0.292 ± 0.004 μM Piformed/min
same,n (substrate Hill slope),"[7]; substrate ATP, eq 7",1.03 ± 0.03 ^b
same,Ks,"[7]; substrate ATP, eq 7",21.0 ± 0.74 µM
same,h (inhibitor Hill slope),"[7]; substrate methionine, eq 7",1.65 ± 0.11
same,β (fraction of activity remaining),"[7]; substrate methionine, eq 7",0.57 ± 0.01
same,Vmax,"[7]; substrate methionine, eq 7",0.359 ± 0.009 μM Piformed/min
same,n (substrate Hill slope),"[7]; substrate methionine, eq 7",0.53 ± 0.02
same,Ks,"[7]; substrate methionine, eq 7",313 ± 35 µM
same,"mode of inhibition, LdMetRS","[7]; best fit by F-test, eq 7",noncompetitive
same,Ki,[8]; varied substrate ATP,inactive
same,Ki,[8]; varied substrate methionine,inactive
TcMetRS (Trypanosoma cruzi strain CL Brener) (protein) MSLKLFSEKANTQALKALLCCHHVKRPVELTLSGAYTSPVLHHPALKQPIFSANEMVRLILHDKWRDDSAGGSGGKKTGCYDGHWASVSLEEEAWLEWEATTFTCAVHPLYTQRRVTPEAAGAFEYLDNKIHENDCRGPCLAPVGEKGTSTKSPSFLVDCIIWCAVLPALCEGGLLGEKEREKLPHLLKWFESFQSAREAHIAGAVESLAVQEFADFLRAPRVYKLSPKISKVFFITTPIYYVNAAPHIGHVYSTLIVDVIGRYHTMKGERVFAMSGTDEHGQKVAEAARQKGMNPYDFTCQVSREFIDCFEQMGYHMDYFIRTTNESHKKVVHELWSKLEAKGDIYLGRYEGWYSVSDESFLTAQNVTDGVDKDGKPCKVSLESGHVVTWLAEDNYMFRLSAFRERLLEWYNNNPGCIVPEFRRREVIRTVEKGLNDLSVSRTREAVQDWAIPVPGNPNHCIYVWLDALSNYYTASRLRLGKSGEELELVEDHRVLERFPADIHVIGKDILKFHAIYWPAFLISAGLPLPKTIVAHGWWTKDRKKISKSLGNVFDPVEKAREFGFDALKYFLLRETGFSDDGDYSDRNMISRLNGELADTLGNLVMRCTSAKINVHRVWPTPDAYNAKDEALIQLIKDLPGVVDHFFLIPDVQKALAAVFDLLRAINSYVTENAPWRLVKTDPDRLRTVLYITMEGTRLATLMLSPVLSQKAPVIFDMLGVPEANRVGVENFGFGVVPSGTSIGDAVEGKVLFPKISLDKAQSA,Km,[9],212 µM
